Source: PubChem BioAssay (NCI)
Where “and” joins values, the source holds several entries; their conditions need not be identical. Identical values can stand only once.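 48-hour exposure; five concentrations; linearly interpolated endpoints. GI50 = concentration required for 50% inhibition of growth. TGI: total growth inhibition.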

What was measured:
Experiment in all cases: NCI-60 cell line screen, 48 h
HS 578T breast = test system: HS 578T breast
DU-145 prostate = test system: DU-145 prostate
MCF7 breast = test system: MCF7 breast
PC-3 prostate = test system: PC-3 prostate
T-47D breast = test system: T-47D breast
DMS 114 small cell lung = test system: DMS 114 small cell lung
SNB-78 CNS = test system: SNB-78 CNS
DLD-1 colon = test system: DLD-1 colon

Row | SMILES | GI50 (HS 578T breast) [µM] | TGI (HS 578T breast) [µM] | GI50 (DU-145 prostate) [µM] | TGI (DU-145 prostate) [µM] | GI50 (MCF7 breast) | TGI (MCF7 breast) | GI50 (PC-3 prostate) [µM] | TGI (PC-3 prostate) | GI50 (T-47D breast) [µM] | TGI (T-47D breast) [µM] | TGI (DMS 114 small cell lung) [µM] | TGI (SNB-78 CNS) [µM] | TGI (DLD-1 colon) [µM]
1 | COC(=O)[C@@H](C)C[C@H](Cc1ccc(F)cc1)NC(=O)c1csc([C@@H](C[C@H](C(C)C)N(C)C(=O)[C@@H](NC(=O)[C@H]2CCCCN2C)C2CC2)OC(C)=O)n1 | 0.307 | > 7.76 | 0.238 | > 9.05 | 0.0587 µM | > 25 µM | 0.415 | > 25 µM | > 25 | > 25 | – | – | –
2 | COc1nc2c(c(=O)n1C)CN(c1ccccc1)C(=O)CN2C | 13 | 73.4 | 61.1 | > 100 | 6.25 µM | > 100 µM | 20 | > 100 µM | 11.1 | > 100 | – | – | –
3 | COc1ccc2c(c1)/C(=C\c1c(-c3ccccc3)nc3sccn13)C(=O)N2 | – | – | 3.01 | 12.6 | > 100 µM | > 100 µM | 9.55 | > 35.6 µM | 8.33 | 30.9 | – | – | –
4 | O=C1CC=C2C3CC4N(CCC45c4ccccc4N1C25)C/C3=C\CO (configuration not stated) | – | > 100 | – | > 100 | – | > 100 µM | – | > 100 µM | – | > 100 | – | – | –
5 | COC(=O)[C@@H](C)C[C@H](Cc1ccccc1)NC(=O)c1csc([C@@H](C[C@H](C(C)C)N(C)C(=O)[C@@H](NC(=O)[C@H]2CCCCN2C)c2ccc(F)cc2)OC(C)=O)n1 | – | > 100 | – | – | 0.00229 µM and 0.0025 µM | 25 µM and > 100 µM | – | 25 µM and 28.3 µM | 0.00826 | – | – | – | –
6 | O=c1cccccc1O | – | > 100 | – | > 100 | – | > 100 µM | – | > 100 µM | – | > 100 | – | – | –
7 | CO[C@H]1/C=C/O[C@@]2(C)Oc3c(C)c(O)c4c(O)c(c(/C=N/N5C(C)CN(Cc6ccc(C#N)cc6)CC5C)c(O)c4c3C2=O)NC(=O)/C(C)=C\C=C\[C@H](C)[C@H](O)[C@@H](C)[C@@H](O)[C@@H](C)[C@H](OC(C)=O)[C@@H]1C (some centres not stated) | 8.83 | 20.3 | 8.16 | 15.3 | 6.37 µM | 24.3 µM | – | – | 6.71 | 26.2 | – | – | –
8 | CC[C@H](C)[C@H](NC(=O)c1ncccn1)C(=O)N(C)[C@H](C[C@@H](OC(C)=O)c1nc(C(=O)N[C@@H](Cc2ccccc2)C[C@H](C)C(=O)OC)cs1)C(C)C | 1.25 | > 25 | 1.78 | > 25 | 0.924 µM | > 25 µM | 1.46 | > 25 µM | – | – | – | – | –
9 | Cn1cc(-c2ncnc3ccc(-c4cnc(Cl)c(NS(C)(=O)=O)c4)cc23)c2ccccc21 | 0.14 | 1.64 | 1.05 | > 100 | 0.205 µM | > 100 µM | 0.361 | 26.1 µM | 0.0944 | 0.691 | – | – | –
10 | COc1cccc(C2SC(C)C(=O)N2NC(=O)C(O)c2ccccc2)c1 (configuration not stated) | > 100 | > 100 | > 100 | > 100 | > 100 µM | > 100 µM | > 100 | > 100 µM | > 100 | > 100 | – | – | –
11 | Cc1ccccc1SC(/C=C/NNC1=NC(c2ccccc2)C(c2ccccc2)=NN1)c1ccccc1 (configuration not stated) | – | – | – | – | – | – | – | – | – | – | 78.4 | 73.9 | > 100
12 | C[C@]12CC[C@@H]3c4ccc(O)cc4CC[C@H]3[C@@H]1CC(Cc1ccccc1)(Cc1ccccc1)C2=O | 30.9 | > 100 | 15.1 | 30.5 | 15.6 µM | 46.8 µM | 4.11 | 15.5 µM | 11 | 34.6 | – | – | –
